Assay results: US20130172294A1, “Treatment with VB-201” (Vascular Biogenics Ltd., priority 2010, published 2013)

Test: Effect of food and capsule coating on single-dose pharmacokinetics (Example 3)
Format: in vivo, human
Protocol: Determination of VB-201 concentrations in plasma was performed using an HPLC-MS/MS (high performance liquid chromatography with tandem mass spectrometric detection) assay. Calibration was for a range of from 5 to 500 ng/ml for low doses and from 50 to 5000 ng/ml for high doses. Pharmacokinetic parameters were estimated by using a non-compartmental method, except for the AUC (area under curve), which was determined using a (log-) trapezoidal rule as the area above the previous trough level. All calculations were made using PKWizard (developed by Russell Barbare and Dr. […] was validated against WinNonlin (Pharsight Corp.), which is an FDA-recognized validated program. Pharmacokinetic parameters were calculated by the program according to standard methods used in the art. Calculation of the pharmacokinetic characteristics was based on the actual blood sampling time (in hours), with predose times set to zero. Concentrations below the LLOQ (lower limit of quantification; 4.974 ng/ml) were assumed to be zero. The effects of food on the pharmacokinetics of enteric coated and non-coated VB-201 capsules were investigated in a double-blind, placebo-controlled study in healthy subjects. Cohorts of six subjects each received a single dose of 10 mg, 2×10 mg or 20 mg VB-201 in the morning. […] Subjects were randomly assigned to receive the drug when fed (i.e., following completion of a standardized high fat meal) or when fasting (i.e., fasting for at least 10 hours). […] Subjects then underwent an additional 8 day washout period, after which subjects underwent a second administration. Subjects who received the first administration when fasting, received the second administration when fed, and subjects who received the first administration when fed, received the second administration when fasting. Following the second administration, blood samples were taken at the same times post-dose as previously. Concentration-time curves were constructed for time periods of up to 144 hours. Pharmacokinetic parameters were calculated based on data for the first 24 hours and for the whole 144 hours. […] Nevertheless, parameters were also calculated from data covering the first 24 hours in order to compare parameters with previous studies. Statistical comparisons of doses, coated vs. non-coated capsules, feeding vs. fasting and coating-feeding interactions were performed using a mixed model ANOVA in an SAS 8.02 software package (SAS Institute, Cary, N.C.) using PROC MIXED

AUC (0-infinity, from 24) (1 × 20 mg non-coated fasting): 16958 ng·h/mL
AUC (0-infinity, from 144) (1 × 20 mg non-coated fasting): 29478 ng·h/mL
AUC(0-24) (1 × 20 mg non-coated fasting): 10013 ng·h/mL
AUC(0-144) (1 × 20 mg non-coated fasting): 26650 ng·h/mL
AUMC (0-24) (1 × 20 mg non-coated fasting): 122207 hours^2*ng/ml
AUMC (0-infinity) (1 × 20 mg non-coated fasting): 1763607 hours^2*ng/ml
Cl/F (0-24) (1 × 20 mg non-coated fasting): 1.301 L/h
Cl/F (from 144) (1 × 20 mg non-coated fasting): 0.702 L/h
Cmax (1 × 20 mg non-coated fasting): 660.4 ng/mL
Ke (from 24) (1 × 20 mg non-coated fasting): 0.0486 h⁻¹
Ke (from 144) (1 × 20 mg non-coated fasting): 0.0166 h⁻¹
MTT (0-24) (1 × 20 mg non-coated fasting): 12.0 h
MTT (from 144) (1 × 20 mg non-coated fasting): 61.0 h
T1/2 (from 24) (1 × 20 mg non-coated fasting): 14.6 h
T1/2 (from 144) (1 × 20 mg non-coated fasting): 43.5 h
Tmax (1 × 20 mg non-coated fasting): 8.33 h
AUC (0-infinity, from 24) (1 × 20 mg non-coated fed): 23552 ng·h/mL
AUC (0-infinity, from 144) (1 × 20 mg non-coated fed): 26424 ng·h/mL
AUC(0-24) (1 × 20 mg non-coated fed): 8334 ng·h/mL
AUC(0-144) (1 × 20 mg non-coated fed): 24282 ng·h/mL
AUMC (0-24) (1 × 20 mg non-coated fed): 111005 hours^2*ng/ml
AUMC (0-infinity) (1 × 20 mg non-coated fed): 1555946 hours^2*ng/ml
Cl/F (0-24) (1 × 20 mg non-coated fed): 1.197 L/h
Cl/F (from 144) (1 × 20 mg non-coated fed): 0.852 L/h
Cmax (1 × 20 mg non-coated fed): 546.4 ng/mL
Ke (from 24) (1 × 20 mg non-coated fed): 0.0332 h⁻¹
Ke (from 144) (1 × 20 mg non-coated fed): 0.0193 h⁻¹
MTT (0-24) (1 × 20 mg non-coated fed): 13.0 h
MTT (from 144) (1 × 20 mg non-coated fed): 57.2 h
T1/2 (from 24) (1 × 20 mg non-coated fed): 25.2 h
T1/2 (from 144) (1 × 20 mg non-coated fed): 36.4 h
Tmax (1 × 20 mg non-coated fed): 8.17 h
AUC (0-infinity, from 24) (2 × 10 mg coated fasting): 10388 ng·h/mL
AUC (0-infinity, from 144) (2 × 10 mg coated fasting): 24950 ng·h/mL
AUC(0-24) (2 × 10 mg coated fasting): 6427 ng·h/mL
AUC(0-144) (2 × 10 mg coated fasting): 20269 ng·h/mL
AUMC (0-24) (2 × 10 mg coated fasting): 83132 hours^2*ng/ml
AUMC (0-infinity) (2 × 10 mg coated fasting): 2246560 hours^2*ng/ml
Cl/F (0-24) (2 × 10 mg coated fasting): 3.318 L/h
Cl/F (from 144) (2 × 10 mg coated fasting): 1.815 L/h
Cmax (2 × 10 mg coated fasting): 424.6 ng/mL
Ke (from 24) (2 × 10 mg coated fasting): 0.0493 h⁻¹
Ke (from 144) (2 × 10 mg coated fasting): 0.0174 h⁻¹
MTT (0-24) (2 × 10 mg coated fasting): 12.9 h
MTT (from 144) (2 × 10 mg coated fasting): 69.2 h
T1/2 (from 24) (2 × 10 mg coated fasting): 14.9 h
T1/2 (from 144) (2 × 10 mg coated fasting): 48.0 h
Tmax (2 × 10 mg coated fasting): 9.67 h
AUC (0-infinity, from 24) (2 × 10 mg coated fed): 15799 ng·h/mL
AUC (0-infinity, from 144) (2 × 10 mg coated fed): 24463 ng·h/mL
AUC(0-24) (2 × 10 mg coated fed): 5008 ng·h/mL
AUC(0-144) (2 × 10 mg coated fed): 21417 ng·h/mL
AUMC (0-24) (2 × 10 mg coated fed): 74749 hours^2*ng/ml
AUMC (0-infinity) (2 × 10 mg coated fed): 1794144 hours^2*ng/ml
Cl/F (0-24) (2 × 10 mg coated fed): 2.067 L/h
Cl/F (from 144) (2 × 10 mg coated fed): 1.239 L/h
Cmax (2 × 10 mg coated fed): 422.3 ng/mL
Ke (from 24) (2 × 10 mg coated fed): 0.0427 h⁻¹
Ke (from 144) (2 × 10 mg coated fed): 0.0196 h⁻¹
MTT (0-24) (2 × 10 mg coated fed): 15.1 h
MTT (from 144) (2 × 10 mg coated fed): 64.6 h
T1/2 (from 24) (2 × 10 mg coated fed): 22.8 h
T1/2 (from 144) (2 × 10 mg coated fed): 37.7 h
Tmax (2 × 10 mg coated fed): 14.33 h
AUC (0-infinity, from 24) (2 × 10 mg non-coated fasting): 14643 ng·h/mL
AUC (0-infinity, from 144) (2 × 10 mg non-coated fasting): 25734 ng·h/mL
AUC(0-24) (2 × 10 mg non-coated fasting): 10036 ng·h/mL
AUC(0-144) (2 × 10 mg non-coated fasting): 24028 ng·h/mL
AUMC (0-24) (2 × 10 mg non-coated fasting): 117485 hours^2*ng/ml
AUMC (0-infinity) (2 × 10 mg non-coated fasting): 1319516 hours^2*ng/ml
Cl/F (0-24) (2 × 10 mg non-coated fasting): 1.444 L/h
Cl/F (from 144) (2 × 10 mg non-coated fasting): 0.810 L/h
Cmax (2 × 10 mg non-coated fasting): 724.4 ng/mL
Ke (from 24) (2 × 10 mg non-coated fasting): 0.0606 h⁻¹
Ke (from 144) (2 × 10 mg non-coated fasting): 0.0195 h⁻¹
MTT (0-24) (2 × 10 mg non-coated fasting): 11.7 h
MTT (from 144) (2 × 10 mg non-coated fasting): 51.5 h
T1/2 (from 24) (2 × 10 mg non-coated fasting): 11.7 h
T1/2 (from 144) (2 × 10 mg non-coated fasting): 36.3 h
Tmax (2 × 10 mg non-coated fasting): 8.67 h
AUC (0-infinity, from 24) (2 × 10 mg non-coated fed): 15305 ng·h/mL
AUC (0-infinity, from 144) (2 × 10 mg non-coated fed): 25822 ng·h/mL
AUC(0-24) (2 × 10 mg non-coated fed): 8708 ng·h/mL
AUC(0-144) (2 × 10 mg non-coated fed): 24104 ng·h/mL
AUMC (0-24) (2 × 10 mg non-coated fed): 109878 hours^2*ng/ml
AUMC (0-infinity) (2 × 10 mg non-coated fed): 1409500 hours^2*ng/ml
Cl/F (0-24) (2 × 10 mg non-coated fed): 1.394 L/h
Cl/F (from 144) (2 × 10 mg non-coated fed): 0.802 L/h
Cmax (2 × 10 mg non-coated fed): 652.1 ng/mL
Ke (from 24) (2 × 10 mg non-coated fed): 0.0528 h⁻¹
Ke (from 144) (2 × 10 mg non-coated fed): 0.0195 h⁻¹
MTT (0-24) (2 × 10 mg non-coated fed): 12.7 h
MTT (from 144) (2 × 10 mg non-coated fed): 54.3 h
T1/2 (from 24) (2 × 10 mg non-coated fed): 15.4 h
T1/2 (from 144) (2 × 10 mg non-coated fed): 36.1 h
Tmax (2 × 10 mg non-coated fed): 8.50 h
effect of enteric coatings on Tmax (enteric coated vs non-coated): increased
Structure (SMILES): CCCCCCCCCCCCCCCCOCC(COP(=O)([O-])OCC[N+](C)(C)C)OCCCCC(=O)O (stereo not shown) [VB-201, 1-hexadecyl-2-(4′-carboxybutyl)-glycerol-3-phosphocholine]
